Where “and” joins values, the source holds several entries; their conditions need not be identical. Equal entries are not always repeated.
What was measured:
Aspergillus carbonarius = test: Sour rot incidence and severity on Kyoho grapes, 2022 field trial (Example 6); type: in vivo; conditions: for sour rot Incidence per plot (PESINC, clusters) / sour rot severity High (PESSEV, clusters) / sour rot severity Low (PESSEV, clusters) / sour rot severity Medium (PESSEV, clusters): applications ABCD; for sour rot severity High (PESSEV, clusters): high (>51%); for sour rot severity Low (PESSEV, clusters): low (<40% of cluster area infected); for sour rot severity Medium (PESSEV, clusters): medium (41%-50%)
Protocol: Field trials were conducted in California 2022 (a dry year) to investigate the efficacy of MDJ in preventing Sour Rot caused by Aspergillus carbonarius (also known as summer bunch rot, abbreviated ASPECA in Table 10). Kyoho grapes (Vitis vinifera×Vitis labrusca) were used in this trial. Three vines were used per plot. The plots were arranged in a randomized complete block design with six replicates (plots) per treatment (24 plots total). The plots were sprayed four times (ABCD) at a rate of 500 gal/AC.
Treatments consisted of MDJ at 32 oz and 48 oz/A. A treatment of Regalia® at 1.5 qt/100 gal and Stargus® at 2 qt/100 gal was included for comparative purposes.
Botrytis and powdery mildew were absent for the trial. An evaluation of sour rot was completed before the harvest. The area of an infected cluster was estimated into a percentage and categorized into three levels of severity: low (<40%), medium (41%-50%), and high (>51%). The majority of individual infected clusters had low severity.

Botrytis cinerea = test: Laccase analysis for prevalence of Botrytis, 2021 field trial (Example 3); type: in vivo; conditions: cabernet sauvignon; approx. 5 mM MDJ at 50 gal/acre, four applications
Protocol: MDJ was applied to fields of grape to investigate the efficacy of MDJ in preventing bunch rot on (Botrytis cinerea) and powdery mildew (Erysiphe necator) on grapes. […] (1 liter) per 50 gallons of water (approximately a 5 mM solution of MDJ). The composition was then applied (at a rate of 50 gallons per acre) to three acres (1245 vines/acre) of a cabernet sauvignon variety grown in Napa Valley, CA. There was a total of four applications between June and September using a ground spray rig. To investigate the prevalence of Botrytis, the enzyme laccase was analyzed. Laccase can negatively impact wine by causing premature browning of bottled white wine and color degradation in red wine. The MDJ treated group had 2 units/ml, whereas the control (grower standard) had 5 units/ml. This level in the control group means that Botrytis problems can be expected during the wine making process, whereas in the MDJ treated group, the value of 2 units/ml means there will be no issues with Botrytis during the wine making process.

[1] = test system: Grapevine (Malbec variety); test: Leaf sap Brix by refractometer, Malbec field trial (Example 1); type: in vivo, Vitis vinifera; conditions: for Brix, individual leaf: leaf no. 1-25, one line per leaf
Protocol: An eliciting composition and methods of use to alter metabolite production were tested on 6 acres of a Malbec variety planted in 1999 in Napa Valley, California. Plants were spaced 5′×10′ (900 vines per acre) and grouped into randomized blocks of 900 vines per group, with six replicates covering three acres for the treatment group, and six replicates covering three acres for the control group. The treatment group received two applications of 32 oz of MDJ applied at a rate of 100 gallons per acre (2.5 mM), once prior to veraison on Aug. 9, 2021 and again when 5-10% of berries were starting to blush (veraison) using a ground spray rig (backpack sprayer). From within each replicate, three plants were selected at random, and 25 leaves from each plant were randomly selected for analysis. The internal sap of the leaves was tested using a refractometer on the days shown below in Table 4 and FIG. 1. Data from each replicate was averaged (25 leaves from each plant, 3 plants).

[2] = Malbec, 2.5 mM MDJ, average of all replicate groups sampled
[3] = Replicate 1 sampled on Aug. 15, 2021, MDJ treated Plant #1
[4] = Replicate 1 sampled on Aug. 15, 2021, MDJ treated Plant #2
[5] = Replicate 1 sampled on Aug. 15, 2021, MDJ treated Plant #3

Structure (SMILES): CCCCCC1C(=O)CCC1CC(=O)OC (stereo not shown) [MDJ, methyl dihydrojasmonate]
- sour rot Incidence per plot (PESINC, clusters) (Aspergillus carbonarius; Aug. 17, 2022, 32 oz/a): 0.8— number
- sour rot Incidence per plot (PESINC, clusters) (Aspergillus carbonarius; Aug. 17, 2022, 48 oz/a): 1.2— number
- sour rot severity High (PESSEV, clusters) (Aspergillus carbonarius; Aug. 17, 2022, 32 oz/a): 0.0— number
- sour rot severity High (PESSEV, clusters) (Aspergillus carbonarius; Aug. 17, 2022, 48 oz/a): 0.0— number
- sour rot severity Low (PESSEV, clusters) (Aspergillus carbonarius; Aug. 17, 2022, 32 oz/a): 0.8— number
- sour rot severity Low (PESSEV, clusters) (Aspergillus carbonarius; Aug. 17, 2022, 48 oz/a): 0.8— number
- Control of sour rot compared to the rest of the treatments (Aspergillus carbonarius; lower rate of MDJ Elicitor (32 oz/A)): highest efficacy in controlling sour rot
- sour rot severity Medium (PESSEV, clusters) (Aspergillus carbonarius; Aug. 17, 2022, 32 oz/a): 0.0— number
- sour rot severity Medium (PESSEV, clusters) (Aspergillus carbonarius; Aug. 17, 2022, 48 oz/a): 0.3— number
- Laccase (Botrytis cinerea): 2 units/ml
- Brix, individual leaf ([1]; Malbec, 2.5 mM MDJ, Replicate 1 sampled on Aug. 15, 2021, MDJ treated Plant #1): 21.0 and 20.0 (2×) and 19.0 (2×) and 19.8 (3×) and 19.5 (3×) and 18.7 (2×) and 19.4 (2×) and 20.5 (2×) and 18.9 (5×) and 18.4 and 19.9 (2×)
- Brix, individual leaf ([1]; Malbec, 2.5 mM MDJ, Replicate 1 sampled on Aug. 15, 2021, MDJ treated Plant #2): 18.8 and 22.1 and 19.6 and 18.7 and 18.9 (2×) and 19.7 (2×) and 19.0 (2×) and 21.0 (2×) and 20.1 and 19.2 (2×) and 21.1 and 21.8 and 19.1 (2×) and 18.3 and 18.0 and 18.6 and 22.8 and 19.5 and 19.3
- Brix, individual leaf ([1]; Malbec, 2.5 mM MDJ, Replicate 1 sampled on Aug. 15, 2021, MDJ treated Plant #3): 19.1 and 19.7 (2×) and 19.0 (2×) and 21.0 and 21.8 (2×) and 19.2 (2×) and 20.0 and 19.10 and 19.00 (2×) and 19.30 (2×) and 19.60 and 19.40 (2×) and 18.80 and 18.90 (2×) and 19.6 and 18.3 and 18.9
- Brix, individual leaf ([1]; Malbec, 2.5 mM MDJ, Replicate 2 sampled on Sep. 22, 2021, MDJ treated Plant #1): 23.9 and 26.3 and 23.4 and 26.8 and 24.3 and 23.1 and 25.0 and 22.9
- Brix, individual leaf ([1]; Malbec, 2.5 mM MDJ, Replicate 2 sampled on Sep. 22, 2021, MDJ treated Plant #2): 26.5 and 25.5 and 24.8 and 24.9 and 26.7 and 23.8 and 24.0 and 25.0
- Brix, individual leaf ([1]; Malbec, 2.5 mM MDJ, Replicate 2 sampled on Sep. 22, 2021, MDJ treated Plant #3): 25.00 (2×) and 19.90 (2×) and 22.40 and 23.80 and 19.30 and 24.60 and 24.50
- MDJ TREATED averages, BRIX METRIC Juice-SAP [1, 2]: 26.1
- Percent increase of Brix, MDJ treated vs control [1, 2]: 44.5%
- Percent increase of Brix, MDJ treated vs control ([1]; Malbec, 2.5 mM MDJ, replicate group 2, 22-Sep): 59.4%
- Percent increase of Brix, MDJ treated vs control ([1]; Malbec, 2.5 mM MDJ, replicate group 3, 30-Sep): 93.3%
- Percent increase of Brix, MDJ treated vs control ([1]; Malbec, 2.5 mM MDJ, replicate group 4, 5-Oct): 46.3%
- Percent increase of Brix, MDJ treated vs control ([1]; Malbec, 2.5 mM MDJ, replicate group 5, 10-Oct): 25%
- Percent increase of Brix, MDJ treated vs control ([1]; Malbec, 2.5 mM MDJ, replicate group 6, 30-Oct): 62.5%
- MDJ TREATED averages, BRIX METRIC Juice-SAP ([1]; Malbec, two applications of 32 oz MDJ at 100 gal/acre (2.5 mM), replicate group 1, 15-Aug): 19.6
- MDJ TREATED averages, BRIX METRIC Juice-SAP ([1]; Malbec, two applications of 32 oz MDJ at 100 gal/acre (2.5 mM), replicate group 2, 22-Sep): 24.4
- MDJ TREATED averages, BRIX METRIC Juice-SAP ([1]; Malbec, two applications of 32 oz MDJ at 100 gal/acre (2.5 mM), replicate group 3, 30-Sep): 29.0
- MDJ TREATED averages, BRIX METRIC Juice-SAP ([1]; Malbec, two applications of 32 oz MDJ at 100 gal/acre (2.5 mM), replicate group 4, 5-Oct): 30.0
- MDJ TREATED averages, BRIX METRIC Juice-SAP ([1]; Malbec, two applications of 32 oz MDJ at 100 gal/acre (2.5 mM), replicate group 5, 10-Oct): 27.5
- MDJ TREATED averages, BRIX METRIC Juice-SAP ([1]; Malbec, two applications of 32 oz MDJ at 100 gal/acre (2.5 mM), replicate group 6, 30-Oct): 26.0
- Plant Brix vs control ([1]; Malbec, two applications of MDJ (2.5 mM)): increase in plant Brix
- % BRIX [1, 3]: 77.9%
- AVG Brix of 25 leaves [1, 3]: 19.5
- % BRIX [1, 4]: 78.8%
- AVG Brix of 25 leaves [1, 4]: 19.7
- % BRIX [1, 5]: 77.9%
- AVG Brix of 25 leaves [1, 5]: 19.5
- % BRIX ([1]; Replicate 2 sampled on Sep. 22, 2021, MDJ treated Plant #1): 99.5%

Reference: patent US20250120399A1, “METHODS AND COMPOSITIONS FOR ALTERING METABOLITES IN VITIS SPP. AND PREVENTING PESTS AND PATHOGENS” (Impello Biosciences, Inc., priority 2022, published 2025)
